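Values below derive from 48-hour exposures of cells grown in 96-well plates, with endpoints linearly interpolated between the two concentrations bracketing the appropriate inhibition level. At the GI50, growth is halved.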 Activity calls are given as the source filed them. Rule as the data show it: active = GI50 up to about 1.1 µM and inactive = higher.
Experiments:
Test in all cases: inhibition of tumour cell growth, NCI panel, 48 h
IGROV-1 = system: IGROV-1
SNB-75 = system: SNB-75
MDA-MB-435 = system: MDA-MB-435
Hs-578T = system: Hs-578T
UO-31 = system: UO-31
EKVX = system: EKVX
NCI/ADR-RES = system: NCI/ADR-RES
SNB-19 = system: SNB-19
U-251 = system: U-251
SN12C = system: SN12C
TK-10 = system: TK-10
KM12 = system: KM12
SF-295 = system: SF-295
NCI-H226 = system: NCI-H226
OVCAR-5 = system: OVCAR-5
RXF 393 = system: RXF 393
A498 = system: A498
UACC-62 = system: UACC-62
LOX IMVI = system: LOX IMVI

Row | Compound | GI50 (IGROV-1) | GI50 (SNB-75) | GI50 (MDA-MB-435) | GI50 (Hs-578T) | GI50 (UO-31) | GI50 (EKVX) | GI50 (NCI/ADR-RES) | GI50 (SNB-19) | GI50 (U-251) | GI50 (SN12C) | GI50 (TK-10) | GI50 (KM12) | GI50 (SF-295) | GI50 (NCI-H226) | GI50 (OVCAR-5) | GI50 (RXF 393) | GI50 (A498) | GI50 (UACC-62) | GI50 (LOX IMVI)
1 | CCn1ncc2c(=O)n3ncn(-c4ccc(Br)cc4)c3nc21 | > 100 µM (inactive) | > 100 µM (inactive) | > 100 µM (inactive) | > 100 µM (inactive) | > 100 µM (inactive) | > 100 µM (inactive) | > 100 µM (inactive) | > 100 µM (inactive) | > 100 µM (inactive) | > 100 µM (inactive) | > 100 µM (inactive) | > 100 µM (inactive) | > 100 µM (inactive) | > 100 µM (inactive) | > 100 µM (inactive) | > 100 µM (inactive) | > 100 µM (inactive) | > 100 µM (inactive) | –
2 | O=[N+]([O-])c1cccnc1NCC1(CO)CCCC1 | 18.3 µM (inactive) | 15.9 µM (inactive) | 22.4 µM (inactive) | 24.5 µM (inactive) | – | 27.8 µM (inactive) | 20 µM (inactive) | 56.4 µM (inactive) | 16.9 µM (inactive) | 22.3 µM (inactive) | 27.2 µM (inactive) | – | 23.8 µM (inactive) | 25.6 µM (inactive) | 31.6 µM (inactive) | > 10 µM (inactive) | 39.6 µM (inactive) | – | 16.7 µM (inactive)
3 | Cc1nc2c(sc3nc4ccccc4n32)c(=O)[nH]1 | > 100 µM (inactive) | > 100 µM (inactive) | > 100 µM (inactive) | > 100 µM (inactive) | > 100 µM (inactive) | > 100 µM (inactive) | > 100 µM (inactive) | > 100 µM (inactive) | > 100 µM (inactive) | – | > 100 µM (inactive) | > 100 µM (inactive) | > 100 µM (inactive) | > 100 µM (inactive) | > 100 µM (inactive) | > 100 µM (inactive) | > 100 µM (inactive) | > 100 µM (inactive) | > 100 µM (inactive)
4 | COc1ccc2nc3cccc([N+](=O)[O-])c3c(NCCC(=O)O)c2c1 | > 10 µM (inactive) | > 10 µM (inactive) | > 10 µM (inactive) | 9.14 µM (inactive) | – | > 10 µM (inactive) | > 10 µM (inactive) | > 10 µM (inactive) | > 10 µM (inactive) | > 10 µM (inactive) | > 10 µM (inactive) | > 10 µM (inactive) | > 10 µM (inactive) | > 10 µM (inactive) | > 10 µM (inactive) | > 10 µM (inactive) | > 10 µM (inactive) | > 10 µM (inactive) | > 10 µM (inactive)
5 | COc1cccc(CCNc2c(C#N)c3n(c4ccccc4[n+]3C)c3ncccc23)c1 | – | 5.96 µM (inactive) | 2.52 µM (inactive) | 7.31 µM (inactive) | 4.53 µM (inactive) | 17.3 µM (inactive) | 6.93 µM (inactive) | 5.9 µM (inactive) | 2.37 µM (inactive) | 15.9 µM (inactive) | 21.2 µM (inactive) | 2 µM (inactive) | 1.69 µM (inactive) | 20.9 µM (inactive) | 15.3 µM (inactive) | 13.5 µM (inactive) | 20.9 µM (inactive) | 20.8 µM (inactive) | 1.74 µM (inactive)
6 | Cc1cc2c3c(nc4ccccc42)C(=O)c2ccccc2-c3n1 | 2.98 µM (inactive) | 4.37 µM (inactive) | 1.66 µM (inactive) | 13.4 µM (inactive) | 10.5 µM (inactive) | 29.4 µM (inactive) | 6.53 µM (inactive) | 45.8 µM (inactive) | 16.1 µM (inactive) | 17 µM (inactive) | 34.8 µM (inactive) | 1.02 µM (active) | 10.1 µM (inactive) | 21 µM (inactive) | 32 µM (inactive) | 20.3 µM (inactive) | 16.9 µM (inactive) | 1.8 µM (inactive) | –
7 | CCOC(=O)Nc1cc2ccccc2c(/N=N/c2ccccc2)c1O | 59.7 µM (inactive) | 31 µM (inactive) | > 100 µM (inactive) | 25.2 µM (inactive) | > 100 µM (inactive) | > 100 µM (inactive) | > 100 µM (inactive) | 84.1 µM (inactive) | 26.5 µM (inactive) | > 100 µM (inactive) | > 100 µM (inactive) | > 100 µM (inactive) | 31.7 µM (inactive) | > 100 µM (inactive) | > 100 µM (inactive) | 20.7 µM (inactive) | > 100 µM (inactive) | > 100 µM (inactive) | –
8 | C=C(C)[C@H]1C=C[C@@H](OC(C)=O)[C@@]2(COC(C)=O)[C@H](OC(=O)CCC)[C@H]3[C@@H](OC(C)=O)[C@@H](C)C[C@]3(O)C(=O)[C@@](C)(OC(C)=O)[C@H]12 | 32.1 µM (inactive) | 46 µM (inactive) | 15.3 µM (inactive) | 43.1 µM (inactive) | 33.4 µM (inactive) | 38.2 µM (inactive) | 42.5 µM (inactive) | 66.2 µM (inactive) | 33.9 µM (inactive) | 36 µM (inactive) | 32.2 µM (inactive) | 39.9 µM (inactive) | – | 40.1 µM (inactive) | 60.4 µM (inactive) | > 100 µM (inactive) | 67 µM (inactive) | 66.5 µM (inactive) | 29.5 µM (inactive)
9 | C/C=C\C(CC(=O)NCCC1CN(S(=O)(=O)c2ccc(C)cc2)c2ccccc21)CC(=O)OC (centres undefined) | > 100 µM (inactive) | > 100 µM (inactive) | > 100 µM (inactive) | > 100 µM (inactive) | > 100 µM (inactive) | > 100 µM (inactive) | > 100 µM (inactive) | > 100 µM (inactive) | > 100 µM (inactive) | – | > 100 µM (inactive) | > 100 µM (inactive) | > 100 µM (inactive) | – | > 100 µM (inactive) | > 100 µM (inactive) | > 100 µM (inactive) | > 100 µM (inactive) | –
10 | C[C@@]12[C@H]3CC[C@@H]1[C@H](O)C(=O)N2CC3 | > 100 µM (inactive) | > 100 µM (inactive) | > 100 µM (inactive) | > 100 µM (inactive) | > 100 µM (inactive) | > 100 µM (inactive) | > 100 µM (inactive) | > 100 µM (inactive) | > 100 µM (inactive) | – | > 100 µM (inactive) | > 100 µM (inactive) | > 100 µM (inactive) | > 100 µM (inactive) | > 100 µM (inactive) | > 100 µM (inactive) | > 100 µM (inactive) | > 100 µM (inactive) | > 100 µM (inactive)
11 | O=c1ssc2ncccc12 | – | 14.4 µM (inactive) | 15.4 µM (inactive) | 46.3 µM (inactive) | 16.4 µM (inactive) | 30.2 µM (inactive) | 32.6 µM (inactive) | 39.2 µM (inactive) | 15.7 µM (inactive) | 15.1 µM (inactive) | 35.5 µM (inactive) | 20.1 µM (inactive) | 33.5 µM (inactive) | 0.212 µM (active) | 26 µM (inactive) | 18.1 µM (inactive) | 59.3 µM (inactive) | 11.6 µM (inactive) | 16.3 µM (inactive)
